The values below come from patent publication US10328113B2, “Method for preventing or treating an allergic disease using extract from illicium verum” (Korea Institute of Oriental Medicine, priority 2012, dated 2019).

The structures appear in SMILES notation.

The subject of one assay is IL-4. Put plainly: IL-4 secretion inhibition, PMA and A23187-stimulated MC/9 mast cells (ELISA). Conditions: Mus musculus, Mast cell; positive control 10 nM; PMA + A23187, 7 hr; read-out: Inhibition rate of IL-4 (%). The class given is cell-based. The protocol: (§1) MC/9 mouse mast cells seeded in a 96-well plate were treated with 20 nM PMA (Phorbol Myristate Acetate) and 0.5 μM or 1 μM calcium ionophore A23187, together with various concentrations of the Illicium verum extract (0, 25, 50, 100, 200 and 400 μg/ml). […] Seven hour later, the secreted amount of cytokines in medium was measured using the ELISA kit (R&D systems Inc., Minneapolis, USA). The 100% activity was calculated with referring to difference of the secreted cytokine amount between the untreated group and the treated group with PMA and A23187.
(§2) The secretion amount was calculated as follows: [1−(the amount of the secreted cytokine in the treated group−the amount of the secreted cytokine in the untreated group)/(the amount of secreted […] in the untreated group]×100.
(§3) The inhibition rate was calculated as follows: [1−(the amount of the secreted cytokine in the treated group−the amount of the secreted cytokine in the untreated group)/(the amount of secreted cytokine in positive control−the amount of the secreted cytokine in the untreated group]×100.
(§4) All data were expressed as mean±standard deviation. Student's t-test was used to examine differences among groups and the data with p<0.05 were considered as statistically significant.
In general terms: ELISA stands for enzyme-linked immunosorbent assay.

The subject of a further assay is IL-8. Put plainly: IL-8 secretion inhibition, PMA and A23187-stimulated MC/9 mast cells (ELISA). The conditions noted are these: Mus musculus, Mast cell; positive control 10 nM; PMA + A23187, 7 hr; read-out: Inhibition rate of IL-8 (%). The class given is cell-based. On the procedure:
as §1, §2, §3, §4

One may read the inhibition as the change of the read-out against control, counted positive when it falls.

`C[C@@H]1C[C@H]2[C@@H]3CCC4=CC(=O)C=C[C@]4(C)[C@@]3(F)[C@@H](O)C[C@]2(C)[C@@]1(O)C(=O)CO` [Dex, dexamethasone]: the inhibition at 0.01 µM with IL-4 stood at 0.4%; in the assay with IL-8, 23%.
